We go through nine molecules from patent US11237158B2, “Time-resolved fluorescent immunochromatographic test strip for detecting paclitaxel drugs as well as preparation method and application thereof” (BEIJING DIAGREAT BIOTEC[…]., LTD., priority 2018, dated 2022).

The test concerns anti-PTX monoclonal antibody. In words: PTX analog interference test (cross reaction rate) on the time-resolved fluorescent immunochromatographic test strip. In kind it is binding, mouse. The method, then: 20 ul of sample is accurately pipetted into 180 ul of sample diluent and mixed fully.
80 uL of sample solution to be tested is accurately pipetted into a test strip loading well with a micropipette, and reaction is carried out at room temperature (20-25° C.) for 15 min. The test strip is inserted into a load carrier of a fluorescence detector, an item to be tested is selected by touching a display screen, a “Detection Start” button is pressed, the fluorescence detector automatically scans the test strip, and a test result is read through the display screen of an instrument or printed.
Quantitative detection: after the test is completed, the instrument obtains the ratio of the time-resolved fluorescent intensity of the detection area on the test strip to the time-resolved fluorescent intensity of the quality control area. Based on a relationship curve of the ratio of the time-resolved fluorescent intensity of the detection area on the pre-built test strip to the time-resolved fluorescent intensity of the quality control area and the concentration of PTX drugs, the content of PTX drug in the sample to be tested is obtained, and finally, the content of the PTX drug in the sample to be tested is obtained by conversion.
The cross reaction rate is measured according to the method of Embodiment 2.
Several analogs of PTX are selected for interference testing.

As for `CC(=O)OC1CC2(OC(C)=O)C(OC(C)=O)C3C4(CO4)C(O)CC(OC(C)=O)C3(C)C(OC(C)=O)C(OC(C)=O)C(=C1C)C2(C)C` (stereo not drawn) [1-Acetoxyl-5-deacetyl-baccatin I], the Cross reaction rate (test concentration 1,000 ng/mL) is given as below 0.01%.

In the case of `CC(=O)O[C@H]1C[C@@]2(O)[C@@H](OC(C)=O)[C@@H]3[C@@]4(CO4)[C@@H](OC(C)=O)C[C@H](OC(C)=O)[C@@]3(C)[C@@H](OC(C)=O)[C@H](OC(C)=O)C(=C1C)C2(C)C` [1-Hydroxybaccatin I], the Cross reaction rate (test concentration 1,000 ng/mL) is reported as below 0.01%.

Where the note is “test concentration 1,000 ng/mL”, `CC(=O)O[C@H]1C(=O)[C@]2(C)[C@@H](O[C@@H]3OC[C@@H](O)[C@H](O)[C@H]3O)C[C@H]3OC[C@@]3(OC(C)=O)[C@H]2[C@H](OC(=O)c2ccccc2)[C@]2(O)C[C@H](OC(=O)[C@H](O)[C@@H](NC(=O)c3ccccc3)c3ccccc3)C(C)=C1C2(C)C` [7-Xylosyltaxol] displayed a Cross reaction rate below 1%.

The molecule `CC(=O)O[C@@]12CO[C@@H]1C[C@H](O)[C@@]1(C)C(=O)[C@H](O)C3=C(C)[C@@H](O)C[C@@](O)([C@@H](OC(=O)c4ccccc4)[C@H]21)C3(C)C` [10-Deacetyl-baccatin III] displayed a Cross reaction rate (test concentration 1,000 ng/mL) below 0.01%.

For `CC(=O)OC1CC2(O)C(OC(=O)c3ccccc3)C3C4(OC(C)=O)COC4CC(O)C3(C)C(O)C(OC(C)=O)C(=C1C)C2(C)C` (stereo not drawn) [13-Acetyl-9-dihydrobaccatin III], the Cross reaction rate (test concentration 1,000 ng/mL) is reported as below 0.01%.

In turn, `CC(=O)O[C@H]1C(=O)[C@@]2(C)[C@H]([C@H](OC(=O)c3ccccc3)[C@]3(O)C[C@H](O)C(C)=C1C3(C)C)[C@]1(OC(C)=O)CO[C@@H]1C[C@@H]2O` [Baccatin III] registered a Cross reaction rate (test concentration 1,000 ng/mL) below 0.01%.

For the molecule `C/C=C(\C)C(=O)N[C@@H](c1ccccc1)[C@@H](O)C(=O)O[C@H]1C[C@@]2(O)[C@@H](OC(=O)c3ccccc3)[C@@H]3[C@]4(OC(C)=O)CO[C@@H]4C[C@H](O)[C@@]3(C)C(=O)[C@H](OC(C)=O)C(=C1C)C2(C)C` [Cephalomannine], the Cross reaction rate (test concentration 1,000 ng/mL) is below 0.04%.

`CC(=O)O[C@@]12CO[C@@H]1C[C@H](O)[C@@]1(C)C(=O)[C@H](O)C3=C(C)[C@@H](OC(=O)[C@H](O)[C@@H](NC(=O)OC(C)(C)C)c4ccccc4)C[C@@](O)([C@@H](OC(=O)c4ccccc4)[C@H]21)C3(C)C` [Docetaxel]: the Cross reaction rate (test concentration 1,000 ng/mL) is below 1%.

Molecule `CC(=O)O[C@H]1C(=O)[C@@]2(C)[C@H]([C@H](OC(=O)c3ccccc3)[C@]3(O)C[C@H](OC(=O)[C@H](O)[C@@H](NC(=O)c4ccccc4)c4ccccc4)C(C)=C1C3(C)C)[C@]1(OC(C)=O)CO[C@@H]1C[C@@H]2O` [Paclitaxel] registered a Cross reaction rate (test concentration 100 ng/mL) of 100%.
